Measured values: patent US5002948A, “3-[4-[4-substituted-1-piperazinyl]-1-butyl]-1H-2,3-dihydroindoles” (H. Lundbeck A/S, priority 1988, dated 1991)

Assays:
[1] = target: T1, 5-HT1A (Rattus norvegicus, UniProt P19327); assay: Inhibition of 5-methoxy-N,N-dimethyltryptamine (5-MeODMT) induced 5-HT syndrome in rats; format: in vivo, Male Wistar rats; design: Male Wistar rats (Mol:Wist) weighing 170-240 g are used; from tissue; host or cells: whole living animal, male Wistar rats (Mol:Wist), s.c. dosing; conditions: rat, sc
T1 sequence (P19327 1-422): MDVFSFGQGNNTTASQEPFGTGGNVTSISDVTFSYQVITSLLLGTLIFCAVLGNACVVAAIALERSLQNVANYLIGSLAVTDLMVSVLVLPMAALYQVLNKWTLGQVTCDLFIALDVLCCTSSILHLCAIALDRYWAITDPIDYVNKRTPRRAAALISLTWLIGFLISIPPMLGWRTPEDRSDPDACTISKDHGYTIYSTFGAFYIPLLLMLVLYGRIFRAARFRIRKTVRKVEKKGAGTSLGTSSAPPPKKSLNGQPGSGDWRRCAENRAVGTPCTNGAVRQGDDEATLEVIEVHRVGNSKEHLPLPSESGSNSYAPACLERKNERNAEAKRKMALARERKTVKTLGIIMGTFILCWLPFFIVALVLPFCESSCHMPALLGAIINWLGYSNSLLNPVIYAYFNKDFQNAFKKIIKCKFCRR
Text: INHIBITION OF 5-METHOXY-N,N-[…] INDUCED 5-HT SYNDROME IN RATS
The so-called 5-HT syndrome is a characteristic behaviour pattern which is induced by 5-HT agonists with effects on 5-HT, possibly 5-HT1A receptors, although lack of specific antagonists make it difficult to evaluate specificity (Smith, L. M. and S. J. Peroutka, Pharmacol. Biochem. & Behaviour 24, 1513-1519, 1986; Tricklebank, M. et al., Eur. J. Pharmacol. 117, 15-24, 1985).
Male Wistar rats (Mol:Wist) weighing 170-240 g are used. Test substrate is injected subcutaneously 30 min. before 5-methoxy-N,N-dimethyltryptamine 5 mg/kg, s.c. Four rats are used for each dose. A control group pretreated with saline is included each test day. Ten, 15 and 20 min later the rats are observed for presence of serotonin (5-HT) syndrome: (1) forepaw treading ("piano playing"), (2) head weaving and (3) hindleg abduction. Further, flat motility is scored. Each part of the syndrome is scored as follows: marked effect (score 2), weak syndrome (score 1) and no effect (score 0). The scores of the three observation times are added. Thus the maximum obtainable score for four rats is 24. The effect of the test substance is expressed as per cent inhibition relative to the control group.
The per cent inhibition of the piano playing syndrome is used as the response, and ED50 values are calculated by log-prohibit analysis.

[2] = target: T2, serotonin 5-HT1A receptors (Rattus norvegicus, UniProt P19327); assay: Inhibition of 3H-8-OHDPAT binding to serotonin 5-HT1A receptors in rat brain in vitro; conditions: 3H-8-OHDPAT 1 nM, rat brain membranes minus cerebellum, 37° C., 15 min; read-out: IC50 (3H 8-OH DPAT binding)
T2 construct: membranes from rat brain minus cerebellum; from tissue; host or cells: brain minus cerebellum of male Wistar (Mol:Wist) rats, membranes
T2 sequence (P19327 1-422): T1 sequence (P19327 1-422)
Procedure: INHIBITION OF ^3 H-8-OHDPAT BINDING TO SEROTONIN 5-HT1A RECEPTORS IN A RAT BRAIN IN VITRO
By this method the inhibition by drugs of the binding of ^3 H-8-OHDPAT (1 nM) to serotonin 5-HT1A receptors in membranes from rat brain minus cerebellum is determined in vitro.
Male Wistar (Mol:Wist) rats (125-250 g) are sacrificed and the brain is dissected and weighed. The brain tissue minus cerebellum is homogenized (Ultra Turrax, 20 sec) in 10 ml of ice cold 50 mM Tris buffer pH 8.0 (at 25° C.) containing 120 mM NaCl, 4 mM CaCl2 and 4 mM MgCl2. The homogenate is centrifuged at 20,000 g for 10 min at 4° C. The pellet is homogenized in 10 ml of buffer and incubated at 37° C. for 10 min. The homogenate is centrifuged as above and the pellet is homogenized in 100 vol (w/v) ice cold buffer containing 10 μ M of parglyine.
Incubation tubes kept on ice in triplicate receive 100 μl of drug solution in water (or water for total binding) and 1000 μ l of tissue suspension (final tissue content corresponds to 10 mg original tissue). The binding experiment is initiated by addition of 100 μ l of ^3 H-8-OHDPAT (final concentration 1 nM) and by placing the tubes in a 37° C. water bath. After incubation for 15 min the samples are filtered under vacuum (0-50 mBar) through Whatman GF/F filters ([…]). The tubes are rinsed with 5 ml ice cold 0.9% NaCl which are then poured on the filters. Thereafter, the filters are washed with 2×5 ml 0.9% NaCl. The filters are placed in counting vials and 4 ml of appropriate scintillation fluid (e.g. Picofluor™15) are added. After shaking for 1 h and storage 2 h in the dark the content of radioactivity is determined by liquid scintillation counting. Specific binding is obtained by subtracting the nonspecific binding in the presence of 10 μ M of 5-HT.
For determination of the inhibition of binding five concentrations of drugs covering 3 decades are used.
The IC50 -value is determined as the concentration, at which the binding is 50% of the total binding in control samples minus the nonspecific binding in the presence of 10 μM of 5-HT.
^3 H-8-OHDPAT from Amersham International plc. England. Specific activity approximately 200 Ci/mmol).

[3] = target: T1, 5-HT1A; assay: Generalization to discriminative stimulus properties induced by 8-OHDPAT in rats (agonism); format: in vivo, Male Wistar rats; design: from tissue; host or cells: whole living animal, male Wistar rats, s.c. dosing; conditions: rat, sc, read-out: ED50, 8-OH DPAT cue agonism
Text: GENERALIZATION TO DISCRIMINATIVE STIMULUS PROPERTIES INDUCED BY 8-OHDPAT IN RATS.
This test model is used to determine the agonist effects of a test compound on 5-HT1A receptors in vivo. A related method is described by Tricklebank, M. D., J. Neill, E. J. Kidd and J. R. Fozard, Eur. J. Pharmacol. 133, 37-56, 1987; Arnt, J., Pharmacology & Toxicology 64, 165-172, 1989.
The procedure is the same as for the antagonism test mentioned above, except that the test compound is substituted for 8-OHDPAT and injected s.c. usually 30 minutes or 45 minutes respectively before beginning of the test.
The per cent drug response obtained for each dose of test compound is used to calculate ED50 values by log-probit analysis.

[4] = target: T1, 5-HT1A; assay: Antagonism of the discriminative stimulus properties induced by 8-OHDPAT in rats; format: in vivo, Male Wistar rats; design: from tissue; host or cells: whole living animal, male Wistar rats, s.c. dosing; conditions: rat, sc, s.c. before 8-OHDPAT; rats trained at 0.4 mg/kg i.p.; inhibition of drug responding; read-out: ED50, 8-OH DPAT cue antagonism
Procedure: ANTAGONISM OF THE DISCRIMINATIVE STIMULUS PROPERTIES INDUCED BY 8-OHDPAT IN RATS.
This test model is used to determine the antagonist effects of a test compound on 5-HT1A receptors in vivo. A related method is described by Tricklebank, M. D., J. Neill, E. J. Kidd and J. R. Fozard, Eur. J. Pharmacol. 133, 47-56, 1987; Arnt. J., Pharmacology & Toxicology 64, 165-172, 1989.
Male Wistar rats are trained to discriminate between 8-OHDPAT (0.4 mg/kg, i.p., 15 min. pretreatment) and physiological saline in operant chambers equipped with two response levers. Between the levers a dipper is placed, where water rewards (0.1 ml) are presented. The rats are water deprived for at least 24 h and work in a fixed ratio (FR) schedule (final FR=32).
Following 8-OHDPAT administration responding is reinforced only on a designated (drug) lever, whereas responding on the opposite lever has no consequences. Following saline administration responding is reinforced on the lever opposite to the drug lever. Drug and saline trials alternate randomly between training days, although the same treatment is given maximally at 3 consecutive days. The level of discrimination occuracy is expressed as the per cent drug responses and is calculated as the number of correct responses×100 divided by the sum of the correct and incorrect responses before the first reward. When stable occuracy (mean correct responding=90 per cent; individual rats at least 75 per cent correct responding) is obtained test sessions are included between training days. Test compound is injected s.c. at appropriate time before 8-OHDPAT and the test begins 15 min after 8-OHDPAT injection. The test trial is terminated when a total of 32 responses are made on either lever or when 20 min have elapsed. No reward is given and the rats have free access to water for 20-30 min after the test. The effects are expressed as per cent inhibition of drug responding. Only results from rats making at least 10 responses on one lever are included in data analysis. Furthermore, only test sessions in which at least half of the rats respond are included.
The per cent inhibition of drug response obtained for each dose of test compound is used to calculate ED50 values by log-probit analysis.

[5] = usually 30 or 45 min before test, substituted for 8-OHDPAT, per cent drug response

Compound | ED50 [1] [µmol/kg] | IC50 [2] [nM] | also measured
O=C1c2ccccc2S(=O)(=O)N1CCCCN1CCN(c2ncccn2)CC1 [ipsapirone, reference compound] | 26 | 17 | ED50 [3, 5]: 1.8 µmol/kg
O=C1CC2(CCCC2)CC(=O)N1CCCCN1CCN(c2ncccn2)CC1 [buspirone, reference compound] | 4.3 | – | ED50 [4]: > 0.8 µmol/kg; ED50 [3, 5]: 0.62 µmol/kg
COc1ccccc1N1CCN(CCCCc2c[nH]c3ccc(F)cc23)CC1 [Compound 1a, 5-Fluoro-3-[4-[4-(2-methoxyphenyl)-1-piperazinyl]-1-butyl]-1 H-indole] | – | 11 | –
CC1(C)CC(=O)N(CCCCN2CCN(c3ncccn3)CC2)C(=O)C1 [gepirone, reference compound] | 32 | – | ED50 [3]: 0.81 µmol/kg
Oc1ccccc1N1CCN(CCCCC2CNc3ccccc32)CC1 (centres unmarked) [Compound 4a, 3-[4-[4-(2-hydroxyphenyl)-1-piperazinyl]-1-butyl]-1H-2,3-dihydroindole] | – | 17 | –
Fc1ccc2[nH]cc(CCCCN3CCN(c4cccc5c4OCC5)CC3)c2c1 [Compound 2e] | – | 15 | –
CSc1ccccc1N1CCN(CCCCC2CNc3ccccc32)CC1 (centres unmarked) [Compound 3b, 3-[4-[4-(2-methylthiophenyl)-1-piperazinyl]-1-butyl]-1H-2,3-dihydroindole] | – | 14 | –
Fc1ccc2c(c1)C(CCCCN1CCN(c3cccc4c3OCCO4)CC1)CN2 (centres unmarked) [Compound 3l, 3-[4-[4-(1,4-benzodioxan-5-yl)-1-piperazinyl]-1-butyl]-5-fluoro-1H-2,3-dihydroindole] | – | 4.4 | –
c1ccc2c(c1)NCC2CCCCN1CCN(c2cccc3c2OCCO3)CC1 (single isomer, unassigned; (+)) [Compound 7c, (+)-3-[4-[4-(1,4-benzodioxan-5-yl)-1-piperazinyl]-1-butyl]-1H-2,3-dihydroindole] | – | 3.5 | –
